According to article PMC4513211, “Inhibition of voltage-gated sodium channels by sumatriptan bioisosteres” (Frontiers in Pharmacology, 2015):

Experiments:
hNav1.4 [1] = target: T1, hNav1.4 (Homo sapiens, UniProt P35499, F1586C); experiment: whole-cell patch clamp, peak INa; type: cell-based; conditions: read-out: 0.1 Hz / IC50
T1 construct: gene SCN4A
From the text: (§1) whole-cell patch clamp, peak INa on hNav1.4

hNav1.4 [2] = target: T2, hNav1.4 (Homo sapiens, UniProt P35499); experiment: whole-cell patch clamp, peak INa; type: cell-based; conditions: read-out: 0.1 Hz / IC50
T2 construct: gene SCN4A
From the text: as §1

T1 sequence (P35499 whole entry F1586C): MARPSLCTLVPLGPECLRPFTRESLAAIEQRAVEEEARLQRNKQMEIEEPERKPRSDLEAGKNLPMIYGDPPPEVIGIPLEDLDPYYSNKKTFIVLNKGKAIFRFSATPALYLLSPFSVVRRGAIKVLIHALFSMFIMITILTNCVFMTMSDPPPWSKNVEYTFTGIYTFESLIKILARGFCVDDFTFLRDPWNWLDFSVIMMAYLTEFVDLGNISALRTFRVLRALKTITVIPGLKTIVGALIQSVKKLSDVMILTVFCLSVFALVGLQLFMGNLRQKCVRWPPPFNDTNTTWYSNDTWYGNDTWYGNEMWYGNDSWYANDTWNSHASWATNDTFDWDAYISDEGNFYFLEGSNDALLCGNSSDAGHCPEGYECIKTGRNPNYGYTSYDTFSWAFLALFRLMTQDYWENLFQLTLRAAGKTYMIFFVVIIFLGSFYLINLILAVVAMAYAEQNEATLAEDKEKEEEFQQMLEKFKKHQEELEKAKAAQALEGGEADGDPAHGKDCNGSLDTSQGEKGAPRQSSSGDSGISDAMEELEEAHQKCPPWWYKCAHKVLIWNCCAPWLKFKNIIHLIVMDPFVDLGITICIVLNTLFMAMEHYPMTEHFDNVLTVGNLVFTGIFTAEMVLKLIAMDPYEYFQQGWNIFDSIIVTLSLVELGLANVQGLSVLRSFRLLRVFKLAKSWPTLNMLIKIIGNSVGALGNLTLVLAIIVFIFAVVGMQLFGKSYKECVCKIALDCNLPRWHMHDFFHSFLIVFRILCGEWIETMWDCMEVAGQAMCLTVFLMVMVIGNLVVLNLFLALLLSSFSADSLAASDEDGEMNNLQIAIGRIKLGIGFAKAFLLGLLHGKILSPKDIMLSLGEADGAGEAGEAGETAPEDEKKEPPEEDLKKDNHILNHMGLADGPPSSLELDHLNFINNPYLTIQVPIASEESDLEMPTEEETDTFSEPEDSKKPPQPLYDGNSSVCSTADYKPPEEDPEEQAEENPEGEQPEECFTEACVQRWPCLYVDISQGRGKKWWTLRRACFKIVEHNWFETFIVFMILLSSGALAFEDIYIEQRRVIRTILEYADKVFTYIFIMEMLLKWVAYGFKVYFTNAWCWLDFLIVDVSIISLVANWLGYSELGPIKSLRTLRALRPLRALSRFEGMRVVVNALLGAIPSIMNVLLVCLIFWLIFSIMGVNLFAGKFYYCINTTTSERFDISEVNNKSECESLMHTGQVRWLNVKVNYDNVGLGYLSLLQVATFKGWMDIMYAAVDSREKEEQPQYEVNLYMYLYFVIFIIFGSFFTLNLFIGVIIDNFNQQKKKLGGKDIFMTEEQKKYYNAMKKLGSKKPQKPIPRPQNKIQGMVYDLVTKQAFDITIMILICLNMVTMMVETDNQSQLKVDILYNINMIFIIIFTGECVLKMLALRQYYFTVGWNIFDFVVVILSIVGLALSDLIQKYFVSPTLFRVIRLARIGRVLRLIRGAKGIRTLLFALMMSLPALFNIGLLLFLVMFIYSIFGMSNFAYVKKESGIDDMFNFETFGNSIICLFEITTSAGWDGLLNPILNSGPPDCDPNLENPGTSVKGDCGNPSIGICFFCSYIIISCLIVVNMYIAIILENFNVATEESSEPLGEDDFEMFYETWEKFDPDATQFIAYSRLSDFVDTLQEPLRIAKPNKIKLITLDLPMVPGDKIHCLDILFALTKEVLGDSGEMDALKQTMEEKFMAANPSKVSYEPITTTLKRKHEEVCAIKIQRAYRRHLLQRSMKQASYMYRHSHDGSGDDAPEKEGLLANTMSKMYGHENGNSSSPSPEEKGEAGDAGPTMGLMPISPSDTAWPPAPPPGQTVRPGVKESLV
T2 sequence (P35499 whole entry): as the sequence (P35499 whole entry F1586C) above, with C1586F counted along it

Q: What does the source list for `CNC[C@H](C)Oc1cccc2ccccc12` [(S)-22b]?
A: IC50 (hNav1.4 [1]): 215 ± 5 µM; IC50 (hNav1.4 [2]): 51 ± 2 µM
